Assay results taken from the CheMixHub viscosity set.
± gives the uncertainty stated by the source.

Experiment: xn = mol fraction of the nth substance listed

SMILES: OCCOCCOCCOCCOCCOCCO + O
- viscosity (293.15 K, 100 kPa, x2 = 0.086): 84.1 ± 5.3 mPa·s
- viscosity (293.15 K, 100 kPa, x2 = 0.154): 83.43 ± 5.3 mPa·s
- viscosity (293.15 K, 100 kPa, x2 = 0.191): 79.58 ± 5 mPa·s
- viscosity (293.15 K, 100 kPa, x2 = 0.222): 81.84 ± 5.4 mPa·s
- viscosity (298.15 K, 100 kPa, x2 = 0.086): 63.85 ± 1.7 mPa·s
- viscosity (298.15 K, 100 kPa, x2 = 0.154): 63.21 ± 1.7 mPa·s
- viscosity (298.15 K, 100 kPa, x2 = 0.191): 61.16 ± 1.6 mPa·s
- viscosity (298.15 K, 100 kPa, x2 = 0.222): 62.01 ± 2.5 mPa·s
- viscosity (303.15 K, 100 kPa, x2 = 0.086): 49.38 ± 1 mPa·s
- viscosity (303.15 K, 100 kPa, x2 = 0.154): 48.95 ± 0.97 mPa·s
- viscosity (303.15 K, 100 kPa, x2 = 0.191): 47.41 ± 0.97 mPa·s
- viscosity (303.15 K, 100 kPa, x2 = 0.222): 47.77 ± 1.6 mPa·s
- viscosity (308.15 K, 100 kPa, x2 = 0.086): 39.16 ± 0.73 mPa·s
- viscosity (308.15 K, 100 kPa, x2 = 0.154): 38.71 ± 0.72 mPa·s
- viscosity (308.15 K, 100 kPa, x2 = 0.191): 37.44 ± 0.71 mPa·s
- viscosity (308.15 K, 100 kPa, x2 = 0.222): 37.78 ± 1.1 mPa·s
- viscosity (313.15 K, 100 kPa, x2 = 0.086): 31.47 ± 0.54 mPa·s
- viscosity (313.15 K, 100 kPa, x2 = 0.154): 31.12 ± 0.53 mPa·s
- viscosity (313.15 K, 100 kPa, x2 = 0.191): 30.09 ± 0.53 mPa·s
- viscosity (313.15 K, 100 kPa, x2 = 0.222): 30.44 ± 0.83 mPa·s
- viscosity (318.15 K, 100 kPa, x2 = 0.086): 25.71 ± 0.41 mPa·s
- viscosity (318.15 K, 100 kPa, x2 = 0.154): 25.38 ± 0.4 mPa·s
- viscosity (318.15 K, 100 kPa, x2 = 0.191): 24.56 ± 0.4 mPa·s
- viscosity (318.15 K, 100 kPa, x2 = 0.222): 24.83 ± 0.65 mPa·s
- viscosity (323.15 K, 100 kPa, x2 = 0.086): 21.3 ± 0.31 mPa·s
- viscosity (323.15 K, 100 kPa, x2 = 0.154): 21.01 ± 0.3 mPa·s
- viscosity (323.15 K, 100 kPa, x2 = 0.191): 20.43 ± 0.3 mPa·s
- viscosity (323.15 K, 100 kPa, x2 = 0.222): 20.66 ± 0.44 mPa·s

SMILES: O=S=O + CCCCN(CCCC)CCCC
- viscosity (303.15 K, 100 kPa, x1 = 0.21): 1.4 mPa·s
- viscosity (303.15 K, 100 kPa, x1 = 0.35): 3.2 mPa·s
- viscosity (303.15 K, 100 kPa, x1 = 0.45): 12.9 mPa·s

SMILES: Cc1cc(C)cc(C)c1 + CCC(C)=O
- viscosity (307.35 K, 101.33 kPa, x2 = 0.1256): 0.549 ± 0.0096 mPa·s
- viscosity (307.35 K, 101.33 kPa, x2 = 0.3266): 0.5 ± 0.0092 mPa·s
- viscosity (307.35 K, 101.33 kPa, x2 = 0.4175): 0.479 ± 0.0091 mPa·s
- viscosity (307.35 K, 101.33 kPa, x2 = 0.5581): 0.443 ± 0.0088 mPa·s
- viscosity (307.35 K, 101.33 kPa, x2 = 0.6213): 0.428 ± 0.0086 mPa·s
- viscosity (307.35 K, 101.33 kPa, x2 = 0.7133): 0.409 ± 0.0085 mPa·s
- viscosity (307.35 K, 101.33 kPa, x2 = 0.8019): 0.389 ± 0.0083 mPa·s
- viscosity (307.35 K, 101.33 kPa, x2 = 0.9035): 0.368 ± 0.0082 mPa·s

SMILES: Cc1cc(C)cc(C)c1 + CC(C)=O
- viscosity (307.35 K, 101.33 kPa, x2 = 0.1387): 0.541 ± 0.0096 mPa·s
- viscosity (307.35 K, 101.33 kPa, x2 = 0.4493): 0.447 ± 0.0088 mPa·s
- viscosity (307.35 K, 101.33 kPa, x2 = 0.5975): 0.403 ± 0.0084 mPa·s
- viscosity (307.35 K, 101.33 kPa, x2 = 0.6567): 0.383 ± 0.0083 mPa·s
- viscosity (307.35 K, 101.33 kPa, x2 = 0.7521): 0.362 ± 0.0081 mPa·s
- viscosity (307.35 K, 101.33 kPa, x2 = 0.9168): 0.313 ± 0.0077 mPa·s

SMILES: O=S=O + ClC(Cl)(Cl)Cl
- viscosity (298.15 K, 101 kPa, x1 = 0.00784): 0.8572 ± 0.022 mPa·s
- viscosity (298.15 K, 101 kPa, x1 = 0.0163): 0.841 ± 0.022 mPa·s
- viscosity (298.15 K, 101 kPa, x1 = 0.0185): 0.8352 ± 0.022 mPa·s
- viscosity (298.15 K, 101 kPa, x1 = 0.0267): 0.82 ± 0.021 mPa·s

SMILES: CCCCCC[N+]1(C)CCOCC1.[Br-] + O=S1(=O)CCCC1
- viscosity (293.15 K, 100 kPa, x1 = 0.0998): 42.16 ± 0.95 mPa·s
- viscosity (298.15 K, 100 kPa, x1 = 0.0998): 34.36 ± 0.78 mPa·s
- viscosity (303.15 K, 100 kPa, x1 = 0.0998): 28.35 ± 0.64 mPa·s
- viscosity (308.15 K, 100 kPa, x1 = 0.0998): 23.7 ± 0.54 mPa·s
- viscosity (313.15 K, 100 kPa, x1 = 0.0998): 20.06 ± 0.45 mPa·s
- viscosity (318.15 K, 100 kPa, x1 = 0.0998): 17.1 ± 0.39 mPa·s
- viscosity (323.15 K, 100 kPa, x1 = 0.0998): 14.72 ± 0.33 mPa·s

SMILES: Cc1cc(C)cc(C)c1 + O=C1CCCCC1
- viscosity (298.15 K, 101.33 kPa, x2 = 0.0996): 0.702 ± 0.005 mPa·s
- viscosity (298.15 K, 101.33 kPa, x2 = 0.1988): 0.75 ± 0.006 mPa·s
- viscosity (298.15 K, 101.33 kPa, x2 = 0.3039): 0.81 ± 0.006 mPa·s
- viscosity (298.15 K, 101.33 kPa, x2 = 0.4042): 0.882 ± 0.006 mPa·s
- viscosity (298.15 K, 101.33 kPa, x2 = 0.5038): 0.965 ± 0.007 mPa·s
- viscosity (298.15 K, 101.33 kPa, x2 = 0.602): 1.067 ± 0.007 mPa·s
- viscosity (298.15 K, 101.33 kPa, x2 = 0.7001): 1.193 ± 0.008 mPa·s
- viscosity (298.15 K, 101.33 kPa, x2 = 0.8014): 1.375 ± 0.009 mPa·s
- viscosity (298.15 K, 101.33 kPa, x2 = 0.8988): 1.607 ± 0.01 mPa·s
- viscosity (303.15 K, 101.33 kPa, x2 = 0.0996): 0.657 ± 0.005 mPa·s
- viscosity (303.15 K, 101.33 kPa, x2 = 0.1988): 0.702 ± 0.005 mPa·s
- viscosity (303.15 K, 101.33 kPa, x2 = 0.3039): 0.755 ± 0.005 mPa·s
- viscosity (303.15 K, 101.33 kPa, x2 = 0.4042): 0.819 ± 0.006 mPa·s
- viscosity (303.15 K, 101.33 kPa, x2 = 0.5038): 0.896 ± 0.006 mPa·s
- viscosity (303.15 K, 101.33 kPa, x2 = 0.602): 0.987 ± 0.007 mPa·s
- viscosity (303.15 K, 101.33 kPa, x2 = 0.7001): 1.115 ± 0.007 mPa·s
- viscosity (303.15 K, 101.33 kPa, x2 = 0.8014): 1.258 ± 0.008 mPa·s
- viscosity (303.15 K, 101.33 kPa, x2 = 0.8988): 1.484 ± 0.009 mPa·s
- viscosity (308.15 K, 101.33 kPa, x2 = 0.0996): 0.619 ± 0.005 mPa·s
- viscosity (308.15 K, 101.33 kPa, x2 = 0.1988): 0.659 ± 0.005 mPa·s
- viscosity (308.15 K, 101.33 kPa, x2 = 0.3039): 0.706 ± 0.005 mPa·s
- viscosity (308.15 K, 101.33 kPa, x2 = 0.4042): 0.765 ± 0.005 mPa·s
- viscosity (308.15 K, 101.33 kPa, x2 = 0.5038): 0.835 ± 0.006 mPa·s
- viscosity (308.15 K, 101.33 kPa, x2 = 0.602): 0.915 ± 0.006 mPa·s
- viscosity (308.15 K, 101.33 kPa, x2 = 0.7001): 1.027 ± 0.007 mPa·s
- viscosity (308.15 K, 101.33 kPa, x2 = 0.8014): 1.168 ± 0.008 mPa·s
- viscosity (308.15 K, 101.33 kPa, x2 = 0.8988): 1.373 ± 0.009 mPa·s

SMILES: Cc1cc(C)cc(C)c1 + Cc1ccccc1
- viscosity (298.15 K, 100 kPa, x2 = 0.5): 0.5957 ± 0.0086 mPa·s
- viscosity (298.15 K, 101.33 kPa, x2 = 0.5): 0.5957 ± 0.0087 mPa·s
- viscosity (298.24 K, 100 kPa, x2 = 0.8): 0.5709 ± 0.0083 mPa·s
- viscosity (298.24 K, 101.33 kPa, x2 = 0.8): 0.5709 ± 0.0083 mPa·s
- viscosity (303.16 K, 101.33 kPa, x2 = 0.5): 0.5616 ± 0.0083 mPa·s
- viscosity (303.18 K, 101.33 kPa, x2 = 0.8): 0.5394 ± 0.008 mPa·s
- viscosity (307.82 K, 101.33 kPa, x2 = 0.8): 0.5125 ± 0.0077 mPa·s
- viscosity (308.22 K, 101.33 kPa, x2 = 0.5): 0.5315 ± 0.008 mPa·s
- viscosity (313.14 K, 100 kPa, x2 = 0.5): 0.505 ± 0.0077 mPa·s
- viscosity (313.14 K, 101.33 kPa, x2 = 0.5): 0.505 ± 0.008 mPa·s
- viscosity (313.26 K, 100 kPa, x2 = 0.8): 0.4837 ± 0.0074 mPa·s
- viscosity (313.26 K, 101.33 kPa, x2 = 0.8): 0.4837 ± 0.0074 mPa·s
- viscosity (317.67 K, 101.33 kPa, x2 = 0.8): 0.4619 ± 0.0072 mPa·s
- viscosity (318.09 K, 101.33 kPa, x2 = 0.5): 0.4792 ± 0.0074 mPa·s
- viscosity (322.66 K, 101.33 kPa, x2 = 0.8): 0.4389 ± 0.0069 mPa·s
- viscosity (322.74 K, 101.33 kPa, x2 = 0.5): 0.4583 ± 0.0072 mPa·s

SMILES: Cc1cc(C)cc(C)c1 + CO
- viscosity (293.15 K, 101 kPa, x2 = 0.2): 0.696 ± 0.014 mPa·s
- viscosity (293.15 K, 101 kPa, x2 = 0.4): 0.699 ± 0.014 mPa·s
- viscosity (293.15 K, 101 kPa, x2 = 0.5): 0.715 ± 0.014 mPa·s
- viscosity (293.15 K, 101 kPa, x2 = 0.6): 0.721 ± 0.014 mPa·s
- viscosity (293.15 K, 101 kPa, x2 = 0.8): 0.683 ± 0.014 mPa·s
